Consider one compound from ChEMBL document CHEMBL5331124, “Degradation of Hexokinase 2 Blocks Glycolysis and Induces GSDME-Dependent Pyroptosis to Amplify Immunogenic Cell Death for Breast Cancer Therapy” (J Med Chem, 2023).

The source made the active and inactive calls. The rule behind the calls is not given here.

Data set [1] deals with 4T1. Briefly: Inhibition of colony formation in mouse 4T1 cells at 5 to 20 uM incubated for 48 hrs by giemsa staining based analysis. Particulars: dose 5-20 µM. The class given is functional, cell-based.
The target in data set [2] is T1, Hexokinase-2 (Homo sapiens) (UniProt P52789).
T1 sequence (whole entry): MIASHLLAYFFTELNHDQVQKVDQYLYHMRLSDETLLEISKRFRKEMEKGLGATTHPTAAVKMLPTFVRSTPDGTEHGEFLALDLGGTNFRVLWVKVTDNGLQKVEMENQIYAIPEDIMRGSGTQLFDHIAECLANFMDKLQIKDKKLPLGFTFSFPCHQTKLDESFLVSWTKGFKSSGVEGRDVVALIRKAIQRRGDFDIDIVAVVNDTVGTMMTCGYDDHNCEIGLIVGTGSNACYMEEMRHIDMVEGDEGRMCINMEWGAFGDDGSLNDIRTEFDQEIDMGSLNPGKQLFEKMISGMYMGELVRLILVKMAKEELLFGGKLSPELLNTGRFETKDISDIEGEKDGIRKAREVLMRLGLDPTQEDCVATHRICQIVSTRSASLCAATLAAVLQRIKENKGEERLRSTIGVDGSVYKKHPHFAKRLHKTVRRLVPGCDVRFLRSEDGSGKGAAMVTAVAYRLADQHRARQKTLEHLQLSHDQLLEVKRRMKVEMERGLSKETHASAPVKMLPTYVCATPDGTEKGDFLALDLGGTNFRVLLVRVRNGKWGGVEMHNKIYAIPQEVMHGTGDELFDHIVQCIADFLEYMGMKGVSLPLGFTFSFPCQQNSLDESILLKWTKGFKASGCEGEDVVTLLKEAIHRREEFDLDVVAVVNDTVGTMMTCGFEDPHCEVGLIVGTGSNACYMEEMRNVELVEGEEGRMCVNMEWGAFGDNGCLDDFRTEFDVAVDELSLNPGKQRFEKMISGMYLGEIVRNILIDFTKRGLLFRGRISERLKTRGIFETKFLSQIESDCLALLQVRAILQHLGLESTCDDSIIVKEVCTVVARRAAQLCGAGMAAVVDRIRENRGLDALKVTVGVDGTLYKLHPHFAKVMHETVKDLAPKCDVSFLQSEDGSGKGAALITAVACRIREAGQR
As to the kind of experiment: Induction of HK2 degradation in human MDA-MB-231 cells measured for 36 hrs by confocal microscopic analysis. The class given is cell-based. Particulars: dose 2.0 µM.

In data set [3] the target is T2, Hexokinase-1 (Homo sapiens) (UniProt P19367).
T2 sequence (whole entry): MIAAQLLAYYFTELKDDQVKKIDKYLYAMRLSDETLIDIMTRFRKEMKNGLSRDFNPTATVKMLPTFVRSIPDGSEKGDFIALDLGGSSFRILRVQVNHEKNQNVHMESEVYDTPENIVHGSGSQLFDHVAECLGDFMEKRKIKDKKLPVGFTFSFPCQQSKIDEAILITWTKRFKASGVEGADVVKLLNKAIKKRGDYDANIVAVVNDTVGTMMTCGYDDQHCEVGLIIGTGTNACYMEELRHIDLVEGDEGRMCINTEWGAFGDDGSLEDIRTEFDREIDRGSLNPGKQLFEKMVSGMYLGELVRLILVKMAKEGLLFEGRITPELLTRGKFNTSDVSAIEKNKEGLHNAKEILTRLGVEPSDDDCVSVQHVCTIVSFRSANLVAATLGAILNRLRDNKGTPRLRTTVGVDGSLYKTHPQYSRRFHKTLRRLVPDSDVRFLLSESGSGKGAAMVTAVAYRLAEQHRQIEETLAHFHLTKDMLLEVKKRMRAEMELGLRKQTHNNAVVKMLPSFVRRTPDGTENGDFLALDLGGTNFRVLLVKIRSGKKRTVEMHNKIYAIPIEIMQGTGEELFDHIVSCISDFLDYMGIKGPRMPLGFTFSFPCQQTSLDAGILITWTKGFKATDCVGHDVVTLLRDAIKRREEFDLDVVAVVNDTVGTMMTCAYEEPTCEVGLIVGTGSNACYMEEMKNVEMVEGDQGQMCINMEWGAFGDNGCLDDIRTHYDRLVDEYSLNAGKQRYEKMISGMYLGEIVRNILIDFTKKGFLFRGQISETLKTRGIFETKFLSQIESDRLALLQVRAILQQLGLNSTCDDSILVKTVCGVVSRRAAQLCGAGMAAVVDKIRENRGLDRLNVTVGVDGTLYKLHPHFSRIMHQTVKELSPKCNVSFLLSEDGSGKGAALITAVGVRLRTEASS
As to the kind of experiment: Induction of HK1 degradation in human MDA-MB-231 cells at 20 uM measured for 36 hrs by Western blot analysis. Format: cell-based.

Data set [4] concerns the target T1, Hexokinase-2 (Homo sapiens). As to the kind of experiment: Induction of HK2 degradation in human MDA-MB-231 cells assessed as decrease in Bcl-2 expression at 20 uM measured for 36 hrs by Western blot analysis. The class given is cell-based. On the technique in general: In western blotting, separated proteins are transferred to a membrane and probed.
Data set [5] relates to 4T1. As to the kind of experiment: Induction of pyroptosis in mouse 4T1 cells assessed as increase in N-terminal GSDME level at 20 uM incubated for 36 hrs. Format: functional, cell-based.
In data set [6] the test system is 4T1. As to the kind of experiment: Induction of pyroptosis in mouse 4T1 cells assessed as viable cells at 20 uM incubated for 36 hrs by annexin V-FITC staining based flow cytometry analysis (reference value: 64 %). Particulars: read-out: Activity. The class given is functional. A general note: In flow cytometry, cells or beads pass a laser one at a time.
For data set [7], the system named is 4T1. Briefly: Antitumor activity against mouse 4T1 cells xenografted in BALB/c mouse assessed as reduction in tumor growth at 50 mg/kg, ip measured after 23 days. Format: functional, organism-based. Particulars: time 23.0 day.
Data set [8] can be described thus: Toxicity in BALB/c mouse implanted with mouse 4T1 cells assessed as pathological changes in spleen at 50 mg/kg, ip measured after 25 days by Hematoxylin -eosin staining based analysis. Particulars: in vivo, 600 h, time 25 day. Format: organism-based.
Data set [9] is described as follows: Toxicity in BALB/c mouse implanted with mouse 4T1 cells assessed as pathological changes in kidney at 50 mg/kg, ip measured after 25 days by Hematoxylin -eosin staining based analysis. Format: organism-based. Particulars: in vivo, 600 h, time 25 day.
Data set [10] is described as follows: Toxicity in BALB/c mouse implanted with mouse 4T1 cells assessed as effect on hemoglobin level at 50 mg/kg, ip measured after 25 days by routine blood test. Particulars: in vivo, 600 h, time 25 day. Format: organism-based.
Data set [11] concerns 4T1. As to the kind of experiment: Antitumor immunity against mouse 4T1 cells implanted in BALB/c mouse model assessed as upregulation of Il-1beta expression in mouse tumor by ELISA analysis. The class given is functional, cell-based. A general note: An ELISA detects its analyte on a solid surface through an enzyme-linked reagent.
Data set [12] can be described thus: Toxicity in BALB/c nude mouse xenografted with human MDA-MB-231 cells assessed as effect on hematocrit level at 50 mg/kg, ip measured after 30 days by routine blood test. The class given is organism-based. Particulars: in vivo, 720 h, time 30 day.
A short description of data set [13]: Toxicity in BALB/c nude mouse xenografted with human MDA-MB-231 cells assessed as body weight loss at 50 mg/kg, ip measured after 30 days. The class given is organism-based. Particulars: in vivo, 720 h, time 30 day.
Data set [14] can be described thus: Toxicity in BALB/c mouse implanted with mouse 4T1 cells assessed as effect on mean corpuscular volume at 50 mg/kg, ip measured after 25 days in presence of cisplatin by routine blood test. Format: organism-based. Particulars: in vivo, 600 h, time 25 day.
Data set [15] in a line: Toxicity in BALB/c mouse implanted with mouse 4T1 cells assessed as effect on hemoglobin level at 50 mg/kg, ip measured after 25 days in presence of cisplatin by routine blood test. Format: organism-based. Particulars: in vivo, 600 h, time 25 day.

Consider `O=C1CCC(N2C(=O)c3cccc(NCCCCNC(=O)c4nn(Cc5ccc(Cl)cc5Cl)c5ccccc45)c3C2=O)C(=O)N1` (stereo not given), for which the inhibition result with 4T1 [1] is “Active”. Moreover, the Activity result was “Dose-Dependent Effect” in data set [2]; “Non-Toxic” in data set [8]; “Non-Toxic” in data set [9]; “Non-Toxic” in [10]; “Non-Toxic” in data set [12]; “Non-Toxic” in data set [13]. Moreover, the Activity entry in data set [14] and in data set [15] was “Non-Toxic” in each case. Moreover, the outcome in [3] was inactive. The outcome (in [4]; in the data set on 4T1 [5]; with 4T1 [7]; in the data set with 4T1 [11]) was Active. The viability at 20 µM with 4T1 [6] was found to be 37.7%.
